Source: PubChem BioAssay AID1963853 (Molecular Pharmacology Branch, DTP, NCI, 2024)
pIC50: −log10 of the molar value.

Tested on: 266295-075-R-J1-PDC spheroid viability
Test: Anticancer human tumor 266295-075-R-J1-PDC patient-derived head and neck squamous carcinoma cell line growth inhibition [POLQ]
Details: spheroids with HUVEC and MSC; for pIC50: curve of first compound; for viability, T/C: stronger effect = lower value
Summary of the method: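 Three-cell-type spheroids modelling solid tumor plus stroma served as the readout system; POL inhibitors were tested individually and in combination, concentration ranges set by clinical Cmax where known.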

[1] = second compound 0.0316 µM, first compound 0.0316 µM
[2] = second compound 0.0316 µM, first compound 0.1 µM
[3] = second compound 0.0316 µM, first compound 0.316 µM
[4] = second compound 0.0316 µM, first compound 1 µM
[5] = second compound 0.0316 µM, first compound 3.16 µM
[6] = second compound 0.0316 µM, first compound 10 µM
[7] = second compound 0.1 µM, first compound 0.0316 µM
[8] = second compound 0.1 µM, first compound 0.1 µM
[9] = second compound 0.1 µM, first compound 0.316 µM
[10] = second compound 0.1 µM, first compound 1 µM
[11] = second compound 0.1 µM, first compound 3.16 µM
[12] = second compound 0.1 µM, first compound 10 µM
[13] = second compound 0.316 µM, first compound 0.0316 µM
[14] = second compound 0.316 µM, first compound 0.1 µM
[15] = second compound 0.316 µM, first compound 0.316 µM
[16] = second compound 0.316 µM, first compound 1 µM
[17] = second compound 0.316 µM, first compound 3.16 µM
[18] = second compound 0.316 µM, first compound 10 µM
[19] = second compound 1 µM, first compound 0.0316 µM
[20] = second compound 1 µM, first compound 0.1 µM
[21] = second compound 1 µM, first compound 0.316 µM
[22] = second compound 1 µM, first compound 1 µM
[23] = second compound 1 µM, first compound 3.16 µM
[24] = second compound 1 µM, first compound 10 µM
[25] = second compound 3.16 µM, first compound 0.0316 µM
[26] = second compound 3.16 µM, first compound 0.1 µM
[27] = second compound 3.16 µM, first compound 0.316 µM
[28] = second compound 3.16 µM, first compound 1 µM
[29] = second compound 3.16 µM, first compound 3.16 µM
[30] = second compound 3.16 µM, first compound 10 µM
[31] = second compound 10 µM, first compound 0.0316 µM
[32] = second compound 10 µM, first compound 0.1 µM
[33] = second compound 10 µM, first compound 0.316 µM
[34] = second compound 10 µM, first compound 1 µM
[35] = second compound 10 µM, first compound 3.16 µM
[36] = second compound 10 µM, first compound 10 µM
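Also: spheroids exposed to compounds for seven days before readout.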

`Nc1ccn(C2OC(CO)C(O)C2(F)F)c(=O)n1` (centres undefined) + COC1C(OC(N)=O)C(O)C(Oc2ccc3c(O)c(NC(=O)c4ccc(O)c(CC=C(C)C)c4)c(=O)oc3c2C)OC1(C)C showed a pIC50 (second compound 0.0316 µM) of under 5.00, a pIC50 (second compound 0.1 µM) of under 5.00 and a pIC50 (second compound 0.316 µM) of under 5.00. It also gave a pIC50 (second compound 1 µM) of under 5.00, a pIC50 (second compound 3.16 µM) of under 5.00 and a pIC50 (second compound 10 µM) of under 5.00. It also gave a viability, T/C [1] of 109%, a viability, T/C [2] of 82% and a viability, T/C [3] of 77.3%. The viability, T/C [4] was 101%, the viability, T/C [5] was 81.3% and the viability, T/C [6] was 77.9%. For the same compound, the viability, T/C [7] was 107%, the viability, T/C [8] was 91.9% and the viability, T/C [9] was 82.6%. It also gave a viability, T/C [10] of 84%, a viability, T/C [11] of 91.1% and a viability, T/C [12] of 75.2%. The viability, T/C [13] was 100%, the viability, T/C [14] was 85.9% and the viability, T/C [15] was 90.8%. The viability, T/C [16] was 82.4%, the viability, T/C [17] was 78.7% and the viability, T/C [18] was 77.1%. The viability, T/C [19] was 104%, the viability, T/C [20] was 78.1% and the viability, T/C [21] was 87%. The viability, T/C [22] was 84.5%, the viability, T/C [23] was 93.6% and the viability, T/C [24] was 87.4%. For the same compound, the viability, T/C [25] was 105%, the viability, T/C [26] was 102% and the viability, T/C [27] was 89.6%. For the same compound, the viability, T/C [28] was 81.8%, the viability, T/C [29] was 85.3% and the viability, T/C [30] was 83.2%. For the same compound, the viability, T/C [31] was 109%, the viability, T/C [32] was 87.2% and the viability, T/C [33] was 84.6%. The viability, T/C [34] was 97.6%, the viability, T/C [35] was 82.3% and the viability, T/C [36] was 84.9%.

`O=c1[nH]cc(F)c(=O)[nH]1` + COC1C(OC(N)=O)C(O)C(Oc2ccc3c(O)c(NC(=O)c4ccc(O)c(CC=C(C)C)c4)c(=O)oc3c2C)OC1(C)C showed a pIC50 (second compound 0.0316 µM) of under 5.00, a pIC50 (second compound 0.1 µM) of under 5.00 and a pIC50 (second compound 0.316 µM) of under 5.00. The pIC50 (second compound 1 µM) was under 5.00, the pIC50 (second compound 3.16 µM) was under 5.00 and the pIC50 (second compound 10 µM) was under 5.00. For the same compound, the viability, T/C [1] was 103%, the viability, T/C [2] was 86.2% and the viability, T/C [3] was 93.1%. For the same compound, the viability, T/C [4] was 107%, the viability, T/C [5] was 96.1% and the viability, T/C [6] was 100%. It also gave a viability, T/C [7] of 106%, a viability, T/C [8] of 110% and a viability, T/C [9] of 86.8%. The viability, T/C [10] was 93.6%, the viability, T/C [11] was 89% and the viability, T/C [12] was 103%. It also gave a viability, T/C [13] of 103%, a viability, T/C [14] of 106% and a viability, T/C [15] of 97.3%. The viability, T/C [16] was 97.3%, the viability, T/C [17] was 91.7% and the viability, T/C [18] was 89%. The viability, T/C [19] was 94.2%, the viability, T/C [20] was 122% and the viability, T/C [21] was 93.2%. For the same compound, the viability, T/C [22] was 111%, the viability, T/C [23] was 90.6% and the viability, T/C [24] was 89.9%. For the same compound, the viability, T/C [25] was 112%, the viability, T/C [26] was 93.5% and the viability, T/C [27] was 108%. For the same compound, the viability, T/C [28] was 97.8%, the viability, T/C [29] was 105% and the viability, T/C [30] was 90.5%. It also gave a viability, T/C [31] of 102%, a viability, T/C [32] of 103% and a viability, T/C [33] of 96.2%. It also gave a viability, T/C [34] of 103%, a viability, T/C [35] of 98.7% and a viability, T/C [36] of 78.9%.
